Literature values in article PMC8954523 (Pharmaceutics, 2022).
In brackets after ≈: the same amount, converted by molar mass.

How the values were obtained:
[1] = 298.15 K; cited from earlier work
[2] = ref 31; cited from earlier work

Row | Compound | aqueous solubility [1] [µM] | log DCoct/w [2]
1 | CNC(=O)c1ccc(N2C(=S)N(c3cnc(C#N)c(C(F)(F)F)c3)C(=O)C23CCC3)cc1F [apalutamide] | 7.78 (≈ 3.71 µg/mL) | 3.90
2 | CNC(=O)c1ccc(N2C(=S)N(c3ccc(C#N)c(C(F)(F)F)c3)C(=O)C2(C)C)cc1F [enzalutamide] | 3.92 (≈ 1.82 µg/mL) | 4.02
